{"source": "paper PMC6934184", "about": "“Selective DNA-PKcs inhibition extends the therapeutic index of localized radiotherapy and chemotherapy” (The Journal of Clinical Investigation, 2019)", "molecular_target": "T1, MAP3K7/MAP3K7IP1 (TAK1-TAB1) (Homo sapiens, UniProt O43318)", "T1 construct": "purchased Thermo Fisher Scientific (Life Technologies) SelectScreen", "T1 sequence (O43318 1-303 limits assumed)": "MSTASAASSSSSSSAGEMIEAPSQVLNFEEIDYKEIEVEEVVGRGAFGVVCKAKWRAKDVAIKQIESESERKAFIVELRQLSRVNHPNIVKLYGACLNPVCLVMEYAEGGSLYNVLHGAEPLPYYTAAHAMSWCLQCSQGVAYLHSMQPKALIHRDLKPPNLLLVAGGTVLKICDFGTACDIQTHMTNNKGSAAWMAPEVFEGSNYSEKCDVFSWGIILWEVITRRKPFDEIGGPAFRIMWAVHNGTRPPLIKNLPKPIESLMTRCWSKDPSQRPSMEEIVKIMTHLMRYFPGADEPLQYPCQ", "T1 sequence (Q15750 437-504 partner limits assumed)": "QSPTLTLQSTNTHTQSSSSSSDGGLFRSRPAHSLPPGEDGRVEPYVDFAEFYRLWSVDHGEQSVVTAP", "test": "SelectScreen LanthaScreen", "format": "binding", "conditions": "read-out: % displacement", "summary_of_the_method": "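Percent values come from Thermo SelectScreen profiling of NU5455, combining activity and binding assays. CSF1R was run in Z'LYTE format at Km app ATP, and CAMK1 in Adapta format with ATP listed at 10.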", "data": [{"smiles": "CN(C(=O)CN1CCOCC1)c1ccc2sc3c(-c4cccc5c(=O)cc(N6CC7CCC(C6)O7)oc45)cccc3c2c1", "note": "[NU5455]", "values": [{"measurement": "inhibition at 1 µM", "value": -3.4, "unit": "%"}]}]}
